System: RQR8+ cells expressing TRBC2 CAR alone
Assay: Tacrolimus effect on proliferation of CAR-T cells in 4 day co-culture
Type: cell-based
Settings: 20 ng/ml; 4 days co-culture with TRBC2+ targets
Procedure: In a similar study, cells transduced to express either TRBC2 CAR alone or TRBC2 CAR in combination with a calcineurin mutant (CnB30) were co-cultured for 4 days with TRBC2+ positive targets in the presence or absence of 20 ng/ml of Tacrolimus. […] This was true for cells expressing TRBC2 CAR alone or co-expressing TRBC2 CAR in combination with the calcineurin mutant.

`C=CC[C@@H]1/C=C(\C)C[C@H](C)C[C@H](OC)[C@H]2O[C@@](O)(C(=O)C(=O)N3CCCC[C@H]3C(=O)O[C@H](/C(C)=C/[C@@H]3CC[C@@H](O)[C@H](OC)C3)[C@H](C)[C@@H](O)CC1=O)[C@H](C)C[C@@H]2OC` [Tacrolimus, tacrolimus] was tested. Which “effect on proliferation of cells expressing TRBC2 CAR alone” value did it give?
The value was “inhibits proliferation”.
